Consider 22 molecules from ChEMBL document CHEMBL5537156, “Discovery and Optimization of WDR5 Inhibitors via Cascade Deoxyribonucleic Acid-Encoded Library Selection Approach” (J Med Chem, 2024).

Structures are written as SMILES.

The target of assay [1] is Histone-lysine N-methyltransferase 2A/WDR5 (Homo sapiens, UniProt P61964). As to the kind of experiment: Inhibition of MLL1/WDR5 (unknown origin) protein-protein interaction incubated for 60 mins by HTRF analysis. The class given is protein assay. (In general: TR-FRET usually uses a lanthanide donor and a delayed reading to cut background.)
In another assay the test system is K562. Kind of assay: Antiproliferative activity against human K562 cells assessed as cell growth inhibition incubated for 5 days by CCK-8 assay. Format: functional, cell-based. In general terms: Tetrazolium dyes change colour on reduction, which living cells bring about.
Another assay relates to MV4-11. As to the kind of experiment: Antiproliferative activity against human MV4-11 cells harboring MLL-r assessed as cell growth inhibition incubated for 5 days by CCK-8 assay. The class given is functional, cell-based.

As to `CNC(=O)[C@@H](Cc1ccc(Cl)cc1)NC(=O)c1cc(NCc2nc[nH]c2C)cc(-c2ccccc2SC)c1`, the half-maximal inhibitory concentration (IC50) came to 0.0113 µM in assay [1]; 1.1 µM in the assay on K562 (Homo sapiens, K562, 120 h); 1.9 µM in the assay with MV4-11 (Homo sapiens, MV4-11, 120 h).
The matching figures for `CSc1ccccc1-c1cc(NCc2nc[nH]c2C)cc2c1CCN(Cc1ccc(Cl)cc1)C2=O`: 0.0405 µM, 4.9 µM and 3.4 µM.
Molecule `Cc1[nH]cnc1CNc1cc(Br)cc(C(=O)N[C@H](Cc2ccc(Cl)cc2)C(=O)O)c1` had an IC50 in assay [1] of 0.05 µM.
Turning to `COC(=O)[C@@H](Cc1ccc(Cl)cc1)NC(=O)c1cc(NCc2nc[nH]c2C)cc(-c2cc(CO)ccc2C)c1`, the IC50 came to 4.9 µM in the assay on K562 (Homo sapiens, K562, 120 h) and 5.5 µM in the assay on MV4-11 (Homo sapiens, MV4-11, 120 h).
In turn, `Cc1[nH]cnc1CNc1cc(C(=O)N[C@H](Cc2ccc([N+](=O)[O-])cc2)C(=O)O)ccc1F` yielded an IC50 in assay [1] of 0.239 µM.
Regarding `COC(=O)[C@@H](Cc1ccc(Cl)cc1)NC(=O)c1cc(NCc2nc[nH]c2C)cc(-c2ccccc2SC)c1`, the IC50 with K562 (Homo sapiens, K562, 120 h) was 3 µM; in the assay with MV4-11 (Homo sapiens, MV4-11, 120 h), 3.9 µM.
`CNC(=O)[C@@H](Cc1ccc(Cl)cc1)NC(=O)c1cc(NCc2nc[nH]c2C)cc(-c2ccc(C(C)(F)F)cc2)c1`: the IC50 in assay [1] turned out to be 0.149 µM.
Same read-out and setting: the value for `CNC(=O)[C@@H](Cc1ccc(Cl)cc1)NC(=O)c1cc(NCc2nc[nH]c2C)cc(-c2ccccc2C2CC2)c1` was 0.0188 µM.
As for `Cc1ccc(CO)cc1-c1cc(NCc2nc[nH]c2C)cc2c1CCN(Cc1ccc(Cl)cc1)C2=O`, the IC50 in assay [1] was 0.0155 µM; with K562 (Homo sapiens, K562, 120 h), 7.1 µM; in the assay with MV4-11 (Homo sapiens, MV4-11, 120 h), 5.7 µM.
As to `Cc1[nH]cnc1CNc1cc(Br)cc(C(=O)NCCc2ccc(Cl)cc2)c1`, in assay [1], inhibition was half-maximal at 0.221 µM (IC50).
On to `CSc1ccccc1-c1cc(NCc2nc[nH]c2C)cc2c1CCCN(CCc1ccc(Cl)cc1)C2=O`, for which the IC50 came to 0.319 µM in assay [1]; 3.03 µM in the assay with K562 (Homo sapiens, K562, 120 h); 3.93 µM with MV4-11 (Homo sapiens, MV4-11, 120 h).
Taken in the same sequence, the figures for `CNC(=O)[C@@H](Cc1ccc(Cl)cc1)NC(=O)c1cc(NCc2nc[nH]c2C)cc(-c2cc(CO)ccc2C)c1` were 0.0086 µM, 12.2 µM and 5 µM.
Turning to `Cc1[nH]cnc1CNc1cc2c(c(-c3ccc(Cl)cc3C(F)(F)F)c1)CCN(CCc1ccc(Cl)cc1)C2=O`, the IC50 in assay [1] was 0.0758 µM; with K562 (Homo sapiens, K562, 120 h), 5.2 µM; in the assay on MV4-11 (Homo sapiens, MV4-11, 120 h), 4.8 µM.
The matching figures for `COc1cc(CN2CCc3c(cc(Cn4ccn(C)c4=N)cc3-c3ccc(F)cc3C)C2=O)cc(OC)c1`: 0.0068 µM, 3.6 µM and 0.17 µM.
Take `Cc1[nH]cnc1CNc1cc(Br)cc(C(=O)N[C@H](Cc2ccc(Cl)cc2)C(=O)NC2CC2)c1`: the IC50 in assay [1] stood at 0.0324 µM.
With `CNC(=O)[C@@H](Cc1ccc(Cl)cc1)NC(=O)c1cc(NCc2nc[nH]c2C)cc(-c2ccc(Cl)cc2C(F)(F)F)c1`, the IC50 in assay [1] was 0.0098 µM; with K562 (Homo sapiens, K562, 120 h), 3.43 µM; in the assay with K562 (k562) it was 4.9 µM; in the assay on MV4-11 (Homo sapiens, MV4-11, 120 h), 6.2 µM; in the assay on MV4-11 (mv4-11) it was 4.13 µM.
As to `CSc1ccccc1-c1cc(NCc2nc[nH]c2C)cc2c1CCN(CCc1ccc(Cl)cc1)C2=O`, the concentration for half-maximal inhibition (IC50) is 0.0416 µM in assay [1]; 4.7 µM in the assay with K562 (Homo sapiens, K562, 120 h); 4.8 µM in the assay on MV4-11 (Homo sapiens, MV4-11, 120 h).
Taken in the same sequence, the figures for `CSc1cc(F)ccc1-c1cc(NCc2nc[nH]c2C)cc2c1CCN(Cc1ccc(Cl)cc1)C2=O` were 0.0269 µM, 3.5 µM and 2.3 µM.
Consider `CSc1cc(F)ccc1-c1cc(NCc2nc[nH]c2C)cc2c1CCN(CCc1ccc(Cl)cc1)C2=O`, for which the IC50 was 0.0395 µM in assay [1]; 4 µM in the assay with K562 (Homo sapiens, K562, 120 h); 3.5 µM with MV4-11 (Homo sapiens, MV4-11, 120 h).
In assay [1], `CNC(=O)[C@@H](Cc1ccc(Cl)cc1)NC(=O)c1cc(Br)cc(NCc2nc[nH]c2C)c1` registered a concentration for half-maximal inhibition (IC50) of 0.0252 µM.
On to `Cc1ccc(CO)cc1-c1cc(NCc2nc[nH]c2C)cc2c1CCN(CCc1ccc(Cl)cc1)C2=O`, for which the IC50 was 0.0172 µM in assay [1]; 3.4 µM in the assay on K562 (Homo sapiens, K562, 120 h); 6.2 µM in the assay on MV4-11 (Homo sapiens, MV4-11, 120 h).
`Cc1[nH]cnc1CNc1cc(C(=O)N[C@H](Cc2ccc(Cl)cc2)C(=O)O)ccc1F`: in assay [1], the IC50 stood at 0.0846 µM.

The term IC50 denotes the point on the concentration scale where inhibition reaches its midpoint.
